# Species on record: Rattus norvegicus
# Experiment: DrugMatrix - Regimen: Daily Repeat
# Format: toxicity, organism-based, Sprague-Dawley
# Parameters: regimen Daily Repeat, gender Male, age 6-8 weeks
# Settings: in vivo, po, route oral GAVAGE, vehicle .5 % CMC; for BASOPHIL / EOSINOPHIL / ERYTHROCYTE COUNT / HEMATOCRIT / HEMOGLOBIN / LEUKOCYTE COUNT / LYMPHOCYTE / MEAN CORPUSCULAR HEMOGLOBIN / MEAN CORPUSCULAR HEMOGLOBIN CONCENTRATION / MEAN CORPUSCULAR VOLUME / MONOCYTE / NEUTROPHIL / PLATELET COUNT: tissue Blood; for ALANINE AMINOTRANSFERASE / ALBUMIN / ALKALINE PHOSPHATASE / ASPARTATE AMINOTRANSFERASE / BLOOD UREA NITROGEN / CARBON DIOXIDE / CHLORIDE / CHOLESTEROL / CREATINE PHOSPHOKINASE / CREATININE / GLUCOSE / LACTATE DEHYDROGENASE / LIPASE / PHOSPHORUS / POTASSIUM / SODIUM / TOTAL BILIRUBIN / TOTAL PROTEIN / URIC ACID: tissue Plasma
# [1] = 0 mg/kg, 72 h, dose level Control, time 3 day
# [2] = 0 mg/kg, 120 h, dose level Control, time 5 day
# [3] = 47 mg/kg, 72 h, dose level Low, time 3 day
# [4] = 47 mg/kg, 120 h, dose level Low, time 5 day
# [5] = 1200 mg/kg, 72 h, dose level High, time 3 day
# [6] = 1200 mg/kg, 120 h, dose level High, time 5 day
smiles,measurement,setting,value
Nc1ccn([C@H]2CC[C@@H](CO)O2)c(=O)n1 [ZALCITABINE],BASOPHIL,[1],0.17%
same,EOSINOPHIL,[1],0.83%
same,ERYTHROCYTE COUNT,[1],7.2 x10E6/uL
same,HEMATOCRIT,[1],43.13%
same,HEMOGLOBIN,[1],14.63 G/DL
same,LEUKOCYTE COUNT,[1],9.05 x10E3/uL
same,LYMPHOCYTE,[1],75.17%
same,MEAN CORPUSCULAR HEMOGLOBIN,[1],20.35 pg
same,MEAN CORPUSCULAR HEMOGLOBIN CONCENTRATION,[1],33.95 G/DL
same,MEAN CORPUSCULAR VOLUME,[1],59.93 fL
same,MONOCYTE,[1],2.83%
same,NEUTROPHIL,[1],21.17%
same,PLATELET COUNT,[1],1093.17 x10E3/uL
same,ALANINE AMINOTRANSFERASE,[1],49.17 u/L
same,ALBUMIN,[1],4.33 G/DL
same,ALKALINE PHOSPHATASE,[1],366.5 u/L
same,ASPARTATE AMINOTRANSFERASE,[1],86.33 u/L
same,BLOOD UREA NITROGEN,[1],17 mg/dL
same,CARBON DIOXIDE,[1],24.17 mmol/L
same,CHLORIDE,[1],102.83 MEQ/L
same,CHOLESTEROL,[1],78.33 mg/dL
same,CREATINE PHOSPHOKINASE,[1],320.83 u/L
same,CREATININE,[1],0.3 mg/dL
same,GLUCOSE,[1],140.83 mg/dL
same,LACTATE DEHYDROGENASE,[1],210 u/L
same,LIPASE,[1],9.33 u/L
same,PHOSPHORUS,[1],9.12 mg/dL
same,POTASSIUM,[1],5.65 MEQ/L
same,SODIUM,[1],144.17 MEQ/L
same,TOTAL BILIRUBIN,[1],0.1 mg/dL
same,TOTAL PROTEIN,[1],6.3 G/DL
same,URIC ACID,[1],1.03 mg/dL
same,BASOPHIL,[2],0.17%
same,EOSINOPHIL,[2],1%
same,ERYTHROCYTE COUNT,[2],7.02 x10E6/uL
same,HEMATOCRIT,[2],43.12%
same,HEMOGLOBIN,[2],14.18 G/DL
same,LEUKOCYTE COUNT,[2],9.63 x10E3/uL
same,LYMPHOCYTE,[2],72%
same,MEAN CORPUSCULAR HEMOGLOBIN,[2],20.25 pg
same,MEAN CORPUSCULAR HEMOGLOBIN CONCENTRATION,[2],32.95 G/DL
same,MEAN CORPUSCULAR VOLUME,[2],61.43 fL
same,MONOCYTE,[2],2.67%
same,NEUTROPHIL,[2],24.5%
same,PLATELET COUNT,[2],1028.5 x10E3/uL
same,ALANINE AMINOTRANSFERASE,[2],42.5 u/L
same,ALBUMIN,[2],4.2 G/DL
same,ALKALINE PHOSPHATASE,[2],300.33 u/L
same,ASPARTATE AMINOTRANSFERASE,[2],87.67 u/L
same,BLOOD UREA NITROGEN,[2],17 mg/dL
same,CARBON DIOXIDE,[2],24.33 mmol/L
same,CHLORIDE,[2],99 MEQ/L
same,CHOLESTEROL,[2],70.67 mg/dL
same,CREATINE PHOSPHOKINASE,[2],891.33 u/L
same,CREATININE,[2],0.3 mg/dL
same,GLUCOSE,[2],139.67 mg/dL
same,LACTATE DEHYDROGENASE,[2],289.83 u/L
same,LIPASE,[2],8.83 u/L
same,PHOSPHORUS,[2],9.5 mg/dL
same,POTASSIUM,[2],5.55 MEQ/L
same,SODIUM,[2],139 MEQ/L
same,TOTAL BILIRUBIN,[2],0.0833 mg/dL
same,TOTAL PROTEIN,[2],6.1 G/DL
same,URIC ACID,[2],0.98 mg/dL
same,BASOPHIL,[3],0.33%
same,EOSINOPHIL,[3],1.67%
same,ERYTHROCYTE COUNT,[3],7.03 x10E6/uL
same,HEMATOCRIT,[3],42.67%
same,HEMOGLOBIN,[3],14.33 G/DL
same,LEUKOCYTE COUNT,[3],10.43 x10E3/uL
same,LYMPHOCYTE,[3],70.67%
same,MEAN CORPUSCULAR HEMOGLOBIN,[3],20.4 pg
same,MEAN CORPUSCULAR HEMOGLOBIN CONCENTRATION,[3],33.57 G/DL
same,MEAN CORPUSCULAR VOLUME,[3],60.7 fL
same,MONOCYTE,[3],2.33%
same,NEUTROPHIL,[3],25%
same,PLATELET COUNT,[3],1049.33 x10E3/uL
same,ALANINE AMINOTRANSFERASE,[3],49.33 u/L
same,ALBUMIN,[3],4.27 G/DL
same,ALKALINE PHOSPHATASE,[3],380.5 u/L
same,ASPARTATE AMINOTRANSFERASE,[3],78.67 u/L
same,BLOOD UREA NITROGEN,[3],18.33 mg/dL
same,CARBON DIOXIDE,[3],22.33 mmol/L
same,CHLORIDE,[3],101 MEQ/L
same,CHOLESTEROL,[3],74.67 mg/dL
same,CREATINE PHOSPHOKINASE,[3],442.33 u/L
same,CREATININE,[3],0.27 mg/dL
same,GLUCOSE,[3],147 mg/dL
same,LACTATE DEHYDROGENASE,[3],216.67 u/L
same,LIPASE,[3],9 u/L
same,PHOSPHORUS,[3],9.3 mg/dL
same,POTASSIUM,[3],5.95 MEQ/L
same,SODIUM,[3],143.67 MEQ/L
same,TOTAL BILIRUBIN,[3],0.1 mg/dL
same,TOTAL PROTEIN,[3],6.27 G/DL
same,URIC ACID,[3],0.87 mg/dL
same,BASOPHIL,[4],0.33%
same,EOSINOPHIL,[4],1%
same,ERYTHROCYTE COUNT,[4],7.41 x10E6/uL
same,HEMATOCRIT,[4],44.03%
same,HEMOGLOBIN,[4],14.73 G/DL
same,LEUKOCYTE COUNT,[4],11.23 x10E3/uL
same,LYMPHOCYTE,[4],81.67%
same,MEAN CORPUSCULAR HEMOGLOBIN,[4],19.83 pg
same,MEAN CORPUSCULAR HEMOGLOBIN CONCENTRATION,[4],33.4 G/DL
same,MEAN CORPUSCULAR VOLUME,[4],59.43 fL
same,MONOCYTE,[4],2.33%
same,NEUTROPHIL,[4],15.67%
same,PLATELET COUNT,[4],1184 x10E3/uL
same,ALANINE AMINOTRANSFERASE,[4],46 u/L
same,ALBUMIN,[4],4.43 G/DL
same,ALKALINE PHOSPHATASE,[4],323 u/L
same,ASPARTATE AMINOTRANSFERASE,[4],95.67 u/L
same,BLOOD UREA NITROGEN,[4],15.67 mg/dL
same,CARBON DIOXIDE,[4],22.33 mmol/L
same,CHLORIDE,[4],98.33 MEQ/L
same,CHOLESTEROL,[4],68 mg/dL
same,CREATINE PHOSPHOKINASE,[4],672 u/L
same,CREATININE,[4],0.3 mg/dL
same,GLUCOSE,[4],129 mg/dL
same,LACTATE DEHYDROGENASE,[4],673.67 u/L
same,LIPASE,[4],8.67 u/L
same,PHOSPHORUS,[4],9.57 mg/dL
same,POTASSIUM,[4],5.77 MEQ/L
same,SODIUM,[4],140.67 MEQ/L
same,TOTAL BILIRUBIN,[4],0.1 mg/dL
same,TOTAL PROTEIN,[4],6.4 G/DL
same,URIC ACID,[4],1.23 mg/dL
same,BASOPHIL,[5],0.33%
same,EOSINOPHIL,[5],1%
same,ERYTHROCYTE COUNT,[5],7.16 x10E6/uL
same,HEMATOCRIT,[5],42.4%
same,HEMOGLOBIN,[5],14.27 G/DL
same,LEUKOCYTE COUNT,[5],9.77 x10E3/uL
same,LYMPHOCYTE,[5],80.33%
same,MEAN CORPUSCULAR HEMOGLOBIN,[5],20 pg
same,MEAN CORPUSCULAR HEMOGLOBIN CONCENTRATION,[5],33.73 G/DL
same,MEAN CORPUSCULAR VOLUME,[5],59.27 fL
same,MONOCYTE,[5],2.33%
same,NEUTROPHIL,[5],16.33%
same,PLATELET COUNT,[5],1274 x10E3/uL
same,ALANINE AMINOTRANSFERASE,[5],63.67 u/L
same,ALBUMIN,[5],4.3 G/DL
same,ALKALINE PHOSPHATASE,[5],291.67 u/L
same,ASPARTATE AMINOTRANSFERASE,[5],78 u/L
same,BLOOD UREA NITROGEN,[5],15.33 mg/dL
same,CARBON DIOXIDE,[5],22.67 mmol/L
same,CHLORIDE,[5],103.67 MEQ/L
same,CHOLESTEROL,[5],79 mg/dL
same,CREATINE PHOSPHOKINASE,[5],509 u/L
same,CREATININE,[5],0.3 mg/dL
same,GLUCOSE,[5],141.33 mg/dL
same,LACTATE DEHYDROGENASE,[5],255.33 u/L
same,LIPASE,[5],9.33 u/L
same,PHOSPHORUS,[5],10.23 mg/dL
same,POTASSIUM,[5],5.83 MEQ/L
same,SODIUM,[5],146.33 MEQ/L
same,TOTAL BILIRUBIN,[5],0.1 mg/dL
same,TOTAL PROTEIN,[5],6.17 G/DL
same,URIC ACID,[5],1.33 mg/dL
same,BASOPHIL,[6],0%
same,EOSINOPHIL,[6],0.67%
same,ERYTHROCYTE COUNT,[6],7.45 x10E6/uL
same,HEMATOCRIT,[6],45%
same,HEMOGLOBIN,[6],15 G/DL
same,LEUKOCYTE COUNT,[6],9.43 x10E3/uL
same,LYMPHOCYTE,[6],80%
same,MEAN CORPUSCULAR HEMOGLOBIN,[6],20.1 pg
same,MEAN CORPUSCULAR HEMOGLOBIN CONCENTRATION,[6],33.37 G/DL
same,MEAN CORPUSCULAR VOLUME,[6],60.37 fL
same,MONOCYTE,[6],2.33%
same,NEUTROPHIL,[6],16.33%
same,PLATELET COUNT,[6],957.67 x10E3/uL
same,ALANINE AMINOTRANSFERASE,[6],49.33 u/L
same,ALBUMIN,[6],4.1 G/DL
same,ALKALINE PHOSPHATASE,[6],291.67 u/L
same,ASPARTATE AMINOTRANSFERASE,[6],101.33 u/L
same,BLOOD UREA NITROGEN,[6],15.33 mg/dL
same,CARBON DIOXIDE,[6],22.67 mmol/L
same,CHLORIDE,[6],99.67 MEQ/L
same,CHOLESTEROL,[6],63.33 mg/dL
same,CREATINE PHOSPHOKINASE,[6],865 u/L
same,CREATININE,[6],0.3 mg/dL
same,GLUCOSE,[6],138 mg/dL
same,LACTATE DEHYDROGENASE,[6],744.67 u/L
same,LIPASE,[6],8.33 u/L
same,PHOSPHORUS,[6],9.43 mg/dL
same,POTASSIUM,[6],5.67 MEQ/L
same,SODIUM,[6],141 MEQ/L
same,TOTAL BILIRUBIN,[6],0.1 mg/dL
same,TOTAL PROTEIN,[6],6.23 G/DL
same,URIC ACID,[6],0.9 mg/dL

# Reference: ChEMBL document CHEMBL3885881, “DrugMatrix”
